Data from patent US11773096B2, “Small-molecule PI5P4K alpha/beta inhibitors and methods of treatment using same” (YALE UNIVERSITY, priority 2018, dated 2023).
pKi: −log10 of the molar value.

Tests used:
[1] = test system: C2Cl2 myotubes; experiment: Immunoblot analysis of signaling in C2Cl2 myotubes; type: cell-based, mouse
Description: (§1) BT-474 and MCF7 breast cancer cells, C2Cl2 mouse myoblast cells, and HEK 293T cells were maintained in high-glucose DMEM medium containing 10% FBS. L6 rat myoblast cells were maintained in α-MEM medium containing 10% FBS. For differentiation into myotubes, C2Cl2 cells were kept in DMEM medium containing 2% horse serum for 5 days, and L6 cells were kept in α-MEM medium containing 2% FBS for 7 days. Amino-acid-free DMEM medium was prepared using powder from USBio, and MEM amino acids solution was from Gibco. Media were all supplemented with 100 U/ml penicillin/streptomycin. Cell lines were purchased from ATCC.
(§2) After wash with cold DPBS buffer, cells were lysed in RIPA buffer that contained 50 mM Tris-HCl pH 8.0, 150 mM NaCl, 1 mM EDTA, 1 mM EGTA, 1% NP-40, 0.5% sodium deoxycholate, 0.1% SDS, and protease and phosphatase inhibitor cocktails (Roche). Total protein concentrations were measured using a BCA assay (Thermo scientific). Cell lysate (about 80 μg protein) was resolved by SDS-PAGE and blotted onto PVDF membranes. The membranes were probed overnight at 4° C. with appropriate primary antibodies (Cell Signaling Technology) and incubated with secondary fluorescent antibodies (LI-COR Biosciences) for 1 hr at room temperature before imaging by an Odyssey CLx system.

[2] = test system: L6 myotubes; experiment: Immunoblot analysis of ACC phosphorylation in L6 myotubes; type: cell-based, rat; conditions: dose-dependent
Description: as §1, §2

[3] = test system: AMPK; experiment: Western blot of ACC phosphorylation by AMPK in myotubes (FIG. 3F); type: cell-based
Description: as §2

[4] = test system: L6 myotubes; experiment: 2-deoxyglucose uptake; type: cell-based, rat; conditions: overnight treatment with 20 μM 7a or 1 mM metformin
Description: To measure 2-deoxyglucose (2-DG) uptake, L6 myotubes were treated with compound or DMSO control overnight in the absence of serum in α-MEM. Following treatment, cells were washed twice with KRH buffer (50 mM HEPES pH 7.4, 137 mM NaCl, 4.7 mM KCl, 1.85 mM CaCl2, 1.3 mM MgSO4) containing 0.1% BSA. Residual wash buffer was removed by aspiration. Cells were then incubated for 10 min at 37° C. in a KRH buffer containing 0.1% BSA, 5 mM unlabeled 2-DG and 2 μCi/ml [1,2-^3H(N)]-2-deoxy-D-glucose (PerkinElmer). The uptake was terminated by washing four times with ice-cold KRH buffer containing 0.1% BSA. Nonspecific 2-DG uptake into cells was determined in the presence of 10 μM cytochalasin B, which inhibits glucose transporters, and subtracted. The cells were lysed with 0.05 M NaOH for 2 hrs at 37° C. 10 μl cell lysate was used to quantify protein concentration by BCA assay. The remaining sample was transferred to a scintillation vial containing 3 ml Opti-Fluor liquid scintillation cocktail (PerkinElmer), and radioactivity was determined using a Beckman Coulter LS 6500 scintillation system and normalized against protein concentration.

[5] = test system: BT474 cells; experiment: Proliferation (CellTiter-Glo); type: cell-based
Description: To measure cell number using the CellTiter-Glo 2.0 assay kit (Promega), cultured cells were equilibrated to room temperature for 30 min, and an equal volume of the CellTiter-Glo reagent was added and mixed for 2 min on an orbital shaker. The plates were incubated for another 10 min before luminescence was recorded using a SpectraMax M5 plate reader. To assess the effect of compound on growth, cells were plated onto white solid-bottom 96-well plates (coming 3917) at 2,000 cells per well in sextuplicate. After 24 hrs, compound (or DMSO control) was added to the wells, and cell number was determined after culturing for 0, 24, 48, and 72 hrs.

[6] = test system: MCF10A p53(−/−) cells; experiment: Growth of isogenic MCF10A cells, p53(−/−); type: cell-based
[7] = biological target: PIKfyve (Homo sapiens, UniProt Q9Y2I7); experiment: Lipid kinase assay
[8] = biological target: NEK11 (Homo sapiens, UniProt Q8NG66); experiment: HotSpot protein kinase panel; conditions: read-out: NEK11 activity remaining
[9] = biological target: NEK1 (Homo sapiens, UniProt Q96PY6); experiment: HotSpot protein kinase panel; conditions: read-out: NEK1 activity remaining
NEK1, sequence (Q96PY6 whole entry): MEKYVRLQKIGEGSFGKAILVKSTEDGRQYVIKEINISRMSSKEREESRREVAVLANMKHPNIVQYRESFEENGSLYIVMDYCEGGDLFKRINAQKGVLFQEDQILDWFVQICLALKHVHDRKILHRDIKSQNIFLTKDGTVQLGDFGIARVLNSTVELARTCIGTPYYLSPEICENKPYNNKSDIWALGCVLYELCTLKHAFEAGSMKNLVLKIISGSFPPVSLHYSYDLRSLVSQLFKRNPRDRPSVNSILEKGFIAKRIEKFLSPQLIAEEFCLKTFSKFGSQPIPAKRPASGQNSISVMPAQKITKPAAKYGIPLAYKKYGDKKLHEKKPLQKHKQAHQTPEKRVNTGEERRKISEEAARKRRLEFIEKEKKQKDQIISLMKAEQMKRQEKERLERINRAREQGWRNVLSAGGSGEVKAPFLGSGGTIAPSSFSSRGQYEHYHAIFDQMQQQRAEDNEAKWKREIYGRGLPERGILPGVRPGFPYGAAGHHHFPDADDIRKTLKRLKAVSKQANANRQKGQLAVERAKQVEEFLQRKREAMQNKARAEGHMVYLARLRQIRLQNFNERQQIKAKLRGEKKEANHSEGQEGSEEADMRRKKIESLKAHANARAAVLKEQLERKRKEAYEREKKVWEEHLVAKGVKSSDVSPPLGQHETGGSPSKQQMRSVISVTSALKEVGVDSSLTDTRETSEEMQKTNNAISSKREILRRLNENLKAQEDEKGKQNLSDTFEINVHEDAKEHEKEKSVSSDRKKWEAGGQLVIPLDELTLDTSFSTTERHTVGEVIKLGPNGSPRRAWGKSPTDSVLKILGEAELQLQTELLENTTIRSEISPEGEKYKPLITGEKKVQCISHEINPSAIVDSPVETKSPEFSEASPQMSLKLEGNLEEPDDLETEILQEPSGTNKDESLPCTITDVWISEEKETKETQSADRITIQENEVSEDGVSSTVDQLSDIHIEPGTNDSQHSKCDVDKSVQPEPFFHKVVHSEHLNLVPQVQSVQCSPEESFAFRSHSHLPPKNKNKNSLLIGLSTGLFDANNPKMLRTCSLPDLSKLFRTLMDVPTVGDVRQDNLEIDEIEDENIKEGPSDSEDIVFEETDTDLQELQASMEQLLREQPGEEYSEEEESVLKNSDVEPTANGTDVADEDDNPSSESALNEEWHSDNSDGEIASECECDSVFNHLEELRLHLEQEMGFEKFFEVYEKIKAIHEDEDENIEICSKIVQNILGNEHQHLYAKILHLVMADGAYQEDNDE

[10] = biological target: c-MER (Homo sapiens, UniProt Q12866); experiment: HotSpot protein kinase panel; conditions: read-out: c-MER activity remaining
[11] = biological target: PLK2 (Homo sapiens, UniProt Q9NYY3); experiment: HotSpot protein kinase panel; conditions: read-out: PLK2 activity remaining
PLK2, sequence (Q9NYY3 whole entry): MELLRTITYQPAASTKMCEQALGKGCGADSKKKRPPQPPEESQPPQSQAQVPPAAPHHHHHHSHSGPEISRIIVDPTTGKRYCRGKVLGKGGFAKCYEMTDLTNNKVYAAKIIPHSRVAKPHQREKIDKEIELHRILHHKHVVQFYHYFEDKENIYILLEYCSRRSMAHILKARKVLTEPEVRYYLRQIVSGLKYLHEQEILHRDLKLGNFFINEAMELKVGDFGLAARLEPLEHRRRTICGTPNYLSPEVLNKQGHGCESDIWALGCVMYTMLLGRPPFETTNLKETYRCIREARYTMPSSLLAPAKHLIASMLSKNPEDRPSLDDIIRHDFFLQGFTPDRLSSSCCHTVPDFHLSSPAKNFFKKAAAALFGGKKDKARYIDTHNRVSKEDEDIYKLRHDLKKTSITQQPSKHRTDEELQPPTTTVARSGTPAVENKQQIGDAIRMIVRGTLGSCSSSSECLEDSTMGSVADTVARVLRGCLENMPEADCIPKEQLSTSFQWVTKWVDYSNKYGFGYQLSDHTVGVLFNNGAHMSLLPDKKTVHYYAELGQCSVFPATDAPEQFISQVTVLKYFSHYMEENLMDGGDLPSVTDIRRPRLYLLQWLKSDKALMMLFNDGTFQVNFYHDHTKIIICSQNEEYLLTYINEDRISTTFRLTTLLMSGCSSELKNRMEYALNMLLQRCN
Description: (§3) In both titrations, the ATP concentration was fixed at 50 μM. The assay kits for Plk1 and RSK2 were obtained from Promega (Madison, Wis.), which use ADP-Glo™ for activity detection.

[12] = biological target: T1, Plk1 (Homo sapiens, UniProt P53350); experiment: HotSpot protein kinase panel; conditions: read-out: Plk1 activity remaining
T1 sequence (P53350 whole entry): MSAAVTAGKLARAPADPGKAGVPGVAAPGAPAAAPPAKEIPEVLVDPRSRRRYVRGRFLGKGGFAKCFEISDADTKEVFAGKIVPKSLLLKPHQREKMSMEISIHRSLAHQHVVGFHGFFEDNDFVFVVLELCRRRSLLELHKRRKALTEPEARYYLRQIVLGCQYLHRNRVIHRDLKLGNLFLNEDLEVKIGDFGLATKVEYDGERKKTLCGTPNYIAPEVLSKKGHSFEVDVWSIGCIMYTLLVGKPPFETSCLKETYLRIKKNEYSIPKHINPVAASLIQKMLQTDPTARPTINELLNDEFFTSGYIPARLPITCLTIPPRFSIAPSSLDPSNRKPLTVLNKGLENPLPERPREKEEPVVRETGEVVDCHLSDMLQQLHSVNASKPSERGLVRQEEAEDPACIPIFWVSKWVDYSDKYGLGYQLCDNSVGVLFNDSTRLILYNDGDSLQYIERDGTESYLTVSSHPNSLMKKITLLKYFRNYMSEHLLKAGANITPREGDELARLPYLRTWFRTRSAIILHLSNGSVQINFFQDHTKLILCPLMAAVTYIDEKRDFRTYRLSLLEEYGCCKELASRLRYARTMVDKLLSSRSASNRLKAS
Description: as §3

[13] = biological target: PI3Kγ (Homo sapiens, UniProt P48736); experiment: Lipid kinase panel (ADP-Glo)
PI3Kγ, sequence (P48736 whole entry, species assumed): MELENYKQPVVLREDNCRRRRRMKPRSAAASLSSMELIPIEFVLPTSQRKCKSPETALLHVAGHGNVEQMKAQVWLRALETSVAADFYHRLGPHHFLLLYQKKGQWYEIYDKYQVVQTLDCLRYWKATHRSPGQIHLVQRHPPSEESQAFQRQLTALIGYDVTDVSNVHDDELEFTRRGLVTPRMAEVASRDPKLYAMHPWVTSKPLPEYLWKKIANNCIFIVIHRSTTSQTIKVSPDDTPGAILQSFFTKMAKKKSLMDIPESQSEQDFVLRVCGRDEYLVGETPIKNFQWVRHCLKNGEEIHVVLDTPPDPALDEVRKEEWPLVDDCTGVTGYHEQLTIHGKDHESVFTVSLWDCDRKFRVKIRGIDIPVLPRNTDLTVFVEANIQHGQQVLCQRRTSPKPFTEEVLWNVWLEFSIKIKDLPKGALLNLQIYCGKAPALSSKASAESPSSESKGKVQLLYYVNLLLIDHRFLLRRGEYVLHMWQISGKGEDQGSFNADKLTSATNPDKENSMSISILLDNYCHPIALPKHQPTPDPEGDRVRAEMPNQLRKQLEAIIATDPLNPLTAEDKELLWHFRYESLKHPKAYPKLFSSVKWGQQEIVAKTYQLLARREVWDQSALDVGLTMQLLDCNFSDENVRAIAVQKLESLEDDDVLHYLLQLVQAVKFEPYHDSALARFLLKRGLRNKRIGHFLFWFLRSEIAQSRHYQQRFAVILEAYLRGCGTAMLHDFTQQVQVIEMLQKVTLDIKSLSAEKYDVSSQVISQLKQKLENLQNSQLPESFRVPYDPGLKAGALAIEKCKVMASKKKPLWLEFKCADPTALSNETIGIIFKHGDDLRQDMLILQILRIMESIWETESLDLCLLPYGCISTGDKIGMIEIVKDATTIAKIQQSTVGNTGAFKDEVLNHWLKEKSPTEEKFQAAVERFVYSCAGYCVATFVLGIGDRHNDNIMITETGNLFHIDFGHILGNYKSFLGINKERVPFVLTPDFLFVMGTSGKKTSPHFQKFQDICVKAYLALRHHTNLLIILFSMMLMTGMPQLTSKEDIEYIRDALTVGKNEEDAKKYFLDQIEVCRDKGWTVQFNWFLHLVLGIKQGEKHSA
Description: (§4) In both titrations, the ATP concentration was fixed at 50 μM.

[14] = biological target: PI3Kδ (Homo sapiens, UniProt O00329); experiment: Lipid kinase panel (ADP-Glo)
Description: as §4

[15] = biological target: p110α/p85α (Homo sapiens, UniProt P42336); experiment: In vitro lipid kinase profiling
[16] = biological target: Vps34 (Homo sapiens, UniProt Q8NEB9); experiment: In vitro lipid kinase profiling
[17] = biological target: PI4P5Kα (Homo sapiens, UniProt Q99755); experiment: Lipid kinase assay / panel (ADP-Glo)
PI4P5Kα, sequence (Q99755 whole entry): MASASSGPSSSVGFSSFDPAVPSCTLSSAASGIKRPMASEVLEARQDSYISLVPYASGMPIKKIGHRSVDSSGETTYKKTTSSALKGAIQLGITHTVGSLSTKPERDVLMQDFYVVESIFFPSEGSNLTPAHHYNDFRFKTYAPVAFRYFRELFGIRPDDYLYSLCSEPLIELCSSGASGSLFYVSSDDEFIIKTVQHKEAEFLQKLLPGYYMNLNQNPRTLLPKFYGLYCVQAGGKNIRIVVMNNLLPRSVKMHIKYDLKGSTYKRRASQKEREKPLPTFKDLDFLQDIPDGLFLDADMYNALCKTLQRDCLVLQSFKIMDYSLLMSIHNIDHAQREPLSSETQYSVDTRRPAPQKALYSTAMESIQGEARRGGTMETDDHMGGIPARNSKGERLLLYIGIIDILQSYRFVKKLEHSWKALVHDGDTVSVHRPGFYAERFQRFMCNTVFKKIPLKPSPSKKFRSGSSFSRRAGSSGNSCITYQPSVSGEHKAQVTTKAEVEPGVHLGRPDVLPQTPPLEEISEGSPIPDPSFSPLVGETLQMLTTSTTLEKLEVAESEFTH
Description: (§5) The assay kits for Plk1 and RSK2 were obtained from Promega (Madison, Wis.), which use ADP-Glo™ for activity detection.

[18] = biological target: T1, Plk1; experiment: Plk1 kinase assay kit (Promega, ADP-Glo); conditions: ATP 50 μM
Description: as §3

[19] = biological target: RSK2 (Homo sapiens, UniProt P51812); experiment: RSK2 kinase assay kit (Promega, ADP-Glo)
RSK2, sequence (P51812 whole entry): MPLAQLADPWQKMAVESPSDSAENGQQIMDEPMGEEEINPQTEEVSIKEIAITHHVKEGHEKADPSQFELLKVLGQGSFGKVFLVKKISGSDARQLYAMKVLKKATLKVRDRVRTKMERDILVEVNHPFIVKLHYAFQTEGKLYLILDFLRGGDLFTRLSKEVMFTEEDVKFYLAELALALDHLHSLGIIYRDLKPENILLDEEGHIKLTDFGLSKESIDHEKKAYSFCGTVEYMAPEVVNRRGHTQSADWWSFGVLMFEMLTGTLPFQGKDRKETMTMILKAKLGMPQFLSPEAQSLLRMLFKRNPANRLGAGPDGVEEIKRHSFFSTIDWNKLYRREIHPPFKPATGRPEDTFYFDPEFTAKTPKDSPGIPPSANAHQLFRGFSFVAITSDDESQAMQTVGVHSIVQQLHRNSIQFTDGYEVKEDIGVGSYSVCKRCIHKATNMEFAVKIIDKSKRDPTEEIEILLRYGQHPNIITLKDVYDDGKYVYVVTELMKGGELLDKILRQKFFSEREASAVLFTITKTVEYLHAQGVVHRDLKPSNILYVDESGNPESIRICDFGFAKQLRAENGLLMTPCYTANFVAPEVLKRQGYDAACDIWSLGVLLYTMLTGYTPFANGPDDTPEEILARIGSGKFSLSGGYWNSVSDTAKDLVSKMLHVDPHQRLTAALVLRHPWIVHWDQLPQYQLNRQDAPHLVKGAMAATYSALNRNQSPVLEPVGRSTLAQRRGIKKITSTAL
Description: as §5

## CN1C(=O)[C@@H](CC2CCCC2)N(C2CCCC2)c2nc(Nc3cc(Cl)c(O)c(Cl)c3)ncc21 [7a, (R)-8-cyclopentyl-7-(cyclopentylmethyl)-2-((3,5-dichloro-4-hydroxyphenyl)amino)-5-methyl-7,8-dihydropteridin-6(5H)-one]
[1]
  basal and insulin-induced phosphorylation of S6K at Thr-389: reduced
[1]; C2Cl2 myotubes, dose-dependent
  phosphorylation of acetyl-CoA carboxylase (ACC): significantly increased
[1]; FIG. 3D
  IRS phosphorylation at Ser-302: reduced
[1]; FIG. 3D, comparison 7a vs rapamycin
  Akt phosphorylation: more pronounced effect
[1]; overnight incubation with 20 μM
  hormone-induced Akt phosphorylation, especially at Ser-473: increased
[2]
  phosphorylation of acetyl-CoA carboxylase (ACC): significantly increased
[3]
  ACC phosphorylation / AMPK activation: activated
[4]
  rate of glucose uptake (labeled 2-deoxyglucose): doubled
[5]; 32° C. (restores p53 function)
  sensitivity of BT474 growth to inhibition at 32° C.: less sensitive
[5]; dose-dependent, 37° C.
  growth of BT474 cells: inhibited
[6]; 10 μM 7a
  residual growth of p53(−/−) cells under EGFR inhibition: eliminated
[6]; without EGF supplement
  sensitivity of growth of p53(−/−) vs p53(+/+) cells: more sensitive
[7]
  pKi: ~6.70
[8]
  remaining activity at 0.5 µM: 66%
[9]
  remaining activity at 0.5 µM: 67%
[10]
  remaining activity at 0.5 µM: 67%
[11]
  remaining activity at 0.5 µM: 75%
[12]
  remaining activity at 0.5 µM: 97%
[13]
  pKi: ~6.70
[14]
  pKi: ~6.92
[15]
  inhibition of p110α/p85α: not inhibited
[16]
  inhibition of Vps34: not inhibited
[17]
  pKi: ~5.30
[17]; read-out: PI4P5Kα activity remaining
  remaining activity at 0.5 µM: 95%
[18]
  inhibition of Plk1: no longer inhibited
[19]
  pKi: ~6.00
[19]; calculated for 0.5 μM 7a and 20 μM ATP
  calculated RSK2 activity, % of DMSO control: 79%
